# Measurements: paper PMC7880688, “Hormone-sensitive lipase couples intergenerational sterol metabolism to reproductive success” (eLife, 2021)
# Tests used:
# Assay type in all cases: biochemical
# His6-MmHsl (murine Hsl) [1] = molecular target: T1, His6-MmHsl (murine Hsl) (Mus musculus, UniProt P54310); experiment: colorimetric free fatty acid release (NEFA kit); conditions: 0.3 mM substrate emulsified with PC/PI, 2% BSA, BTP buffer pH 7.5, 37°C, 30-60 min
# T1 construct: gene Lipe; N-terminal His6 tag kept, COS-7 cell extract; plasmid described previously (Lass et al., 2006)
# T1 sequence (P54310 1-759): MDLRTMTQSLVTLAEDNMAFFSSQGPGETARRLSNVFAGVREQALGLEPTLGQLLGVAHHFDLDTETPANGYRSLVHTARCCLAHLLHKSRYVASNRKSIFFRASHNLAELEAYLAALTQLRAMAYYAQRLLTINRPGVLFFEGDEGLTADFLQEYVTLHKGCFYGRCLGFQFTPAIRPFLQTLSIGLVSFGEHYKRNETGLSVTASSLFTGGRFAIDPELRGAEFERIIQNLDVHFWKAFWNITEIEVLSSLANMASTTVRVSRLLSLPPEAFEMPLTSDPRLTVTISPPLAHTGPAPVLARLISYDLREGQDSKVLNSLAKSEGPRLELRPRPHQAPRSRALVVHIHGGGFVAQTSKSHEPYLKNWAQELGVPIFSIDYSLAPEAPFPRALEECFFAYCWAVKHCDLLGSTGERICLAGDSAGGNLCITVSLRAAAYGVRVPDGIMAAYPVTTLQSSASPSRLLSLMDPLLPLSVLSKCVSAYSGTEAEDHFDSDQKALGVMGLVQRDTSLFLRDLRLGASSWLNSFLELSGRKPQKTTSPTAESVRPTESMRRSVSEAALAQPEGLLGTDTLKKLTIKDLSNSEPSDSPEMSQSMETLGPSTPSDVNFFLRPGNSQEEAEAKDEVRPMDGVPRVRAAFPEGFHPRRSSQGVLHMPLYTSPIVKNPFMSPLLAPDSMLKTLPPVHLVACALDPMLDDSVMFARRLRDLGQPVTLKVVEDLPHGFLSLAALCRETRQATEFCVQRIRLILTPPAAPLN
# [2] = molecular target: T2, His6-Hsl (Drosophila Hsl) (Drosophila melanogaster, UniProt A4UZQ8); experiment: colorimetric free fatty acid release (NEFA kit); conditions: 0.3 mM substrate emulsified with PC/PI, 2% BSA, BTP buffer pH 7.5, 37°C, 30-60 min
# T2 construct: Hsl open reading frame from cDNA RE52776 in pcDNA4/HisMax C, N-terminal His6 tag kept, COS-7 cell extract
# T2 sequence (A4UZQ8 2-881): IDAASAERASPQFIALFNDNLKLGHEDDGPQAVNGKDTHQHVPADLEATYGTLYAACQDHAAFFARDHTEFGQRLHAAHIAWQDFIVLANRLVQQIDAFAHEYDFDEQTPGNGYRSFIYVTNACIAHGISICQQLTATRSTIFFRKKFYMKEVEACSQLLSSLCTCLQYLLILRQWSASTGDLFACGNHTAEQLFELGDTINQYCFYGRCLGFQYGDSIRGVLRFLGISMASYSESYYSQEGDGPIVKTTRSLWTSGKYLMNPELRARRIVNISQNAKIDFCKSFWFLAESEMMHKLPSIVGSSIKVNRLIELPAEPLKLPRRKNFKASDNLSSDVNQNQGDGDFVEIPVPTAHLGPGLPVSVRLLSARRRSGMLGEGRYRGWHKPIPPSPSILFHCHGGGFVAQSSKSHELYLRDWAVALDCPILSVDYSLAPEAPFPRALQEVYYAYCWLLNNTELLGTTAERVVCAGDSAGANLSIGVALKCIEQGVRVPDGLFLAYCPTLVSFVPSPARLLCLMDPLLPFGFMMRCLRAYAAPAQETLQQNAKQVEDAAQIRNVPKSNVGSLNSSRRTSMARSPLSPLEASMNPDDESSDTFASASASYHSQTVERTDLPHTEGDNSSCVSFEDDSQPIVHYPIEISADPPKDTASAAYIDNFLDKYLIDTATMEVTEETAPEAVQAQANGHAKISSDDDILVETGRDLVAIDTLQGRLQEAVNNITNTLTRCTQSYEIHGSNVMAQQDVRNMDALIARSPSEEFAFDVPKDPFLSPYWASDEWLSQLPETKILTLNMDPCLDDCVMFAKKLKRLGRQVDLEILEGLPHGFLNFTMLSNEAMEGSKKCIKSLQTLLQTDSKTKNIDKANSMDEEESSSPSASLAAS
# His6-MmHsl (murine Hsl) [3] = molecular target: T1, His6-MmHsl (murine Hsl); experiment: release of labelled fatty acid, scintillation counting; conditions: 0.45 mM substrate emulsified with PC/PI, 5% BSA, BTP buffer pH 7.5, 37°C, 60 min; labelled compound (14C-cholesteryl oleate tracer)
# [4] = molecular target: T2, His6-Hsl (Drosophila Hsl); experiment: as above; conditions: 0.45 mM substrate emulsified with PC/PI, 5% BSA, BTP buffer pH 7.5, 37°C, 60 min; labelled compound (14C-cholesteryl oleate tracer)
Structure (SMILES),colorimetric free fatty acid release (NEFA kit) (His6-MmHsl (murine Hsl) [1]),colorimetric free fatty acid release (NEFA kit) [2],"release of labelled fatty acid, scintillation counting (His6-MmHsl (murine Hsl) [3])","release of labelled fatty acid, scintillation counting [4]"
"CCCCCCCC/C=C\CCCCCCCC(=O)OCC(CO)OC(=O)CCCCCCC/C=C\CCCCCCCC (racemic) [DG 36:2, 1,2-dioleoyl-rac-glycerol]","Expression of His6-MmHsl increased cellular hydrolysis rates toward monoacylglycerol (MG), DG, TG, and SE","Expression of fly His6-Hsl elevated cellular hydrolysis rates toward MG, DG, TG, and SE",,
"CCCCCCCC/C=C\CCCCCCCC(=O)O[C@H]1CC[C@@]2(C)C(=CC[C@H]3[C@@H]4CC[C@H]([C@H](C)CCCC(C)C)[C@@]4(C)CC[C@@H]32)C1 [CE 18:1, cholesteryl oleate]",,,"Expression of His6-MmHsl increased cellular hydrolysis rates toward monoacylglycerol (MG), DG, TG, and SE","Expression of fly His6-Hsl elevated cellular hydrolysis rates toward MG, DG, TG, and SE"
